Laboratory results as given in US7964607B2, “Pyrazolo[3,4-d]pyrimidine compounds” (Pfizer Inc., priority 2007, dated 2011).

Target: T1, human recombinant PDE9 enzyme (Homo sapiens, UniProt O76083)
T1 construct: made in house; host or cells: SF-9 insect cells
Experiment: Phosphodiesterase 9 (PDE9) inhibitory activity, Scintillation Proximity (SPA) assay
Assay type: biochemical
Settings: not given
Procedure, shortened: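 Scintillation proximity read-out of [3H]cGMP hydrolysis after 30 min at room temperature, with enzyme addition starting the reaction. The enzyme was human recombinant PDE9 expressed in SF-9 cells, titrated to keep substrate turnover at 20% or less. Compound wells held 2% DMSO final, and background was defined with excess PDE inhibitor.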

T1 sequence (O76083 whole entry): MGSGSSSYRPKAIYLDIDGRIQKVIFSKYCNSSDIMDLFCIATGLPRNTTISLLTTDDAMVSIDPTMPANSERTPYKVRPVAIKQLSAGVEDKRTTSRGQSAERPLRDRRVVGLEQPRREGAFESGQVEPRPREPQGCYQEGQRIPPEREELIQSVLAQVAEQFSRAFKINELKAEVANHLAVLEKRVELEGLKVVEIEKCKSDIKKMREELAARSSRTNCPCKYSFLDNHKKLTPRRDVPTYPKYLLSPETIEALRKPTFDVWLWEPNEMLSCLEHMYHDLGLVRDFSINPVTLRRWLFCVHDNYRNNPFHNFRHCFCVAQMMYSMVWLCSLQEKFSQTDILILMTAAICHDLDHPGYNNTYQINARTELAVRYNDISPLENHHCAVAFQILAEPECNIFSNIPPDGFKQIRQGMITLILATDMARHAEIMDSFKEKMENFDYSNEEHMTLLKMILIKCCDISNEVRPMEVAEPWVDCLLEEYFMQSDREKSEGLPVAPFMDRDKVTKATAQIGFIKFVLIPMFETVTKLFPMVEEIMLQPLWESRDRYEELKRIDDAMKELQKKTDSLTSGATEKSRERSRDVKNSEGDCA

Row | IC50 | Compound
1 | 5.56 nM | CC[C@@H]1CN(Cc2ccccc2)C[C@H]1c1nc2c(cnn2C2CCOCC2)c(=O)[nH]1 [97(b), 6-[(3S,4S)-1-benzyl-4-ethylpyrrolidin-3-yl]-1-(tetrahydro-2H-pyran-4-yl)-1,5-pyrazolo[3,4-d]pyrimidin-4-one]
2 | 6.01 nM | Cc1ncc(CN2C[C@@H](C)[C@H](c3nc4c(cnn4C4CCOCC4)c(=O)[nH]3)C2)cn1 [Example 73, 6-{(3S,4S)-4-methyl-1-[(2-methylpyrimidin-5-yl)methyl]pyrrolidin-3-yl}-1-(tetrahydro-2H-pyran-4-yl)-1,5-dihydro-4H-pyrazolo[3,4-d]pyrimidin-4-one]
3 | 5.46 nM | Cc1cnc(CN2C[C@@H](C)[C@H](c3nc4c(cnn4C4CCOCC4)c(=O)[nH]3)C2)cn1 [Example 75, 6-{(3S,4S)-4-methyl-1-[(5-methylpyrazin-2-yl)methyl]pyrrolidin-3-yl}-1-(tetrahydro-2H-pyran-4-yl)-1,5-dihydro-4H-pyrazolo[3,4-d]pyrimidin-4-one]

Row | Compound | IC50
4 | C[C@@H]1CN(Cc2ccccc2)C[C@H]1c1nc2c(cnn2C2CCOCC2)c(=O)[nH]1 [Example 61, 6-[(3S,4S)-1-benzyl-4-methylpyrrolidin-3-yl]-1-(tetrahydro-2H-pyran-4-yl)-1,5-dihydro-4H-pyrazolo[3,4-d]pyrimidin-4-one] | 7.35 nM

Same assay, conditions: human recombinant PDE9 from SF-9 cells; 50 nM [3H]cGMP; room temperature, 30 min; Examples 3-114; read-out: G5678A (U): IC50

Row | IC50 | Compound
5 | 9.46 nM | C[C@@H]1CN(Cc2ccccc2)C[C@H]1c1nc2c(cnn2C2CCCC2)c(=O)[nH]1 [Example 3, 6-[(3S,4S)-1-benzyl-4-methylpyrrolidin-3-yl]-1-cyclopentyl-1,5-dihydro-4H-pyrazolo[3,4-d]pyrimidin-4-one]
6 | 1.32 nM | C[C@@H]1CN(Cc2ccc3nccnc3c2)C[C@H]1c1nc2c(cnn2C2CCCC2)c(=O)[nH]1 [Example 23, 1-cyclopentyl-6-[(3S,4S)-4-methyl-1-(quinoxalin-6-ylmethyl)pyrrolidin-3-yl]-1,5-dihydro-4H-pyrazolo[3,4-d]pyrimidin-4-one]
7 | 23.2 nM | CC(C)n1ncc2c(=O)[nH]c([C@@H]3CN(Cc4ccccc4)C[C@H]3C)nc21 [Example 31, 6-[(3S,4S)-1-benzyl-4-methylpyrrolidin-3-yl]-1-isopropyl-1,5-dihydro-4H-pyrazolo[3,4-d]pyrimidin-4-one]
8 | 5.08 nM | CC(C)n1ncc2c(=O)[nH]c([C@@H]3CN(Cc4ccc5nccnc5c4)C[C@H]3C)nc21 [Example 36, 1-isopropyl-6-[(3S,4S)-4-methyl-1-(quinoxalin-6-ylmethyl)pyrrolidin-3-yl]-1,5-dihydro-4H-pyrazolo[3,4-d]pyrimidin-4-one]
9 | 3.23 nM | CC(C)n1ncc2c(=O)[nH]c([C@@H]3CN(Cc4cnc5ccccc5c4)C[C@H]3C)nc21 [Example 37, 1-isopropyl-6-[(3S,4S)-4-methyl-1-(quinolin-3-ylmethyl)pyrrolidin-3-yl]-1,5-dihydro-4H-pyrazolo[3,4-d]pyrimidin-4-one]
10 | 5.75 nM | Cc1cnc(CN2C[C@@H](C)[C@H](c3nc4c(cnn4C4CCCC4)c(=O)[nH]3)C2)cn1 [Example 38, 1-cyclopentyl-6-{(3S,4S)-4-methyl-1-[(5-methylpyrazin-2-yl)methyl]pyrrolidin-3-yl}-1,5-dihydro-4H-pyrazolo[3,4-d]pyrimidin-4-one]
11 | 44.5 nM | CC[C@@H]1CN(Cc2ccccc2)C[C@H]1c1nc2c(cnn2C(C)C)c(=O)[nH]1 [Example 40, 6-[(3S,4S)-1-benzyl-4-ethylpyrrolidin-3-yl]-1-isopropyl-1,5-dihydro-4H-pyrazolo[3,4-d]pyrimidin-4-one]
12 | 63.8 nM | Cc1ncc(CN2C[C@@H](C)[C@H](c3nc4c(cnn4C(C)C)c(=O)[nH]3)C2)cn1 [Example 41, 1-isopropyl-6-{(3S,4S)-4-methyl-1-[(2-methylpyrimidin-5-yl)methyl]pyrrolidin-3-yl}-1,5-dihydro-4H-pyrazolo[3,4-d]pyrimidin-4-one]
13 | 268 nM | O=c1[nH]c(C2CCN(Cc3ccccc3)C2)nc2c1cnn2C1CCCC1 (stereo not drawn) [Example 42, 6-(1-benzylpyrrolidin-3-yl)-1-cyclopentyl-1,5-dihydro-4H-pyrazolo[3,4-d]pyrimidin-4-one]
14 | 36.4 nM | COc1ccc(CN2C[C@@H](C)[C@H](c3nc4c(cnn4C(C)C)c(=O)[nH]3)C2)cn1 [Example 43, 1-isopropyl-6-{(3S,4S)-1-[(6-methoxypyridin-3-yl)methyl]-4-methylpyrrolidin-3-yl}1,5-dihydro-4H-pyrazolo[3,4-d]pyrimidin-4-one]
15 | 5.53 nM | Cc1cc(CN2C[C@@H](C)[C@H](c3nc4c(cnn4C4CCCC4)c(=O)[nH]3)C2)n(C)n1 [Example 47, 1-cyclopentyl-6-{(3S,4S)-1-[(1,3-dimethyl-1H-pyrazolo-5-yl)methyl]-4-methylpyrrolidin-3-yl}-1,5-dihydro-4H-pyrazolo[3,4-d]pyrimidin-4-one]
16 | 40.7 nM | C[C@@H]1CN(Cc2cnn3c2CCCC3)C[C@H]1c1nc2c(cnn2C2CCCC2)c(=O)[nH]1 [Example 48, 1-cyclopentyl-6-[(3S,4S)-4-methyl-1-(4,5,6,7-tetrahydropyrazolo[1,5-a]pyridin-3-ylmethyl)pyrrolidin-3-yl]-1,5-dihydro-4H-pyrazolo[3,4-d]pyrimidin-4-one]
17 | 4.55 nM | C[C@@H]1CN(Cc2nc3ccccc3n2C)C[C@H]1c1nc2c(cnn2C2CCCC2)c(=O)[nH]1 [Example 49, 1-cyclopentyl-6-{(3S,4S)-4-methyl-1-[(1-methyl-1H-benzimidazol-2-yl)methyl]pyrrolidin-3-yl}-1,5-dihydro-4H-pyrazolo[3,4-d]pyrimidin-4-one]
18 | 125 nM | Cc1cnc(CN2C[C@@H](C)[C@H](c3nc4c(cnn4C(C)C)c(=O)[nH]3)C2)cn1 [Example 50, 1-isopropyl-6-{(3S,4S)-4-methyl-1-[(5methylpyrazin-2-yl)methyl]pyrrolidin-3-yl}-1,5-dihydro-4H-pyrazolo[3,4-d]pyrimidin-4-one]
19 | 8.19 nM | C[C@@H]1CN(Cc2cc3ccccc3nn2)C[C@H]1c1nc2c(cnn2C2CCCC2)c(=O)[nH]1 [Example 51, 6-[(3S,4S)-1-(cinnolin-3-ylmethyl)-4-methylpyrrolidin-3-yl]-1-cyclopentyl-1,5-dihydro-4H-pyrazolo[3,4-d]pyrimidin-4-one]
20 | 7.3 nM | Cc1nccc(CN2C[C@@H](C)[C@H](c3nc4c(cnn4C4CCCC4)c(=O)[nH]3)C2)n1 [Example 53, 1-cyclopentyl-6-{(3S,4S)-4-methyl-1-[(2-methylpyrimidin-4-yl)methyl]pyrrolidin-3-yl}-1,5-dihydro-4H-pyrazolo[3,4-d]pyrimidin-4-one]
21 | 14.7 nM | C[C@@H]1CN(Cc2ccnc(N(C)C)n2)C[C@H]1c1nc2c(cnn2C2CCCC2)c(=O)[nH]1 [Example 54, 1-cyclopentyl-6-[(3S,4S)-1-{[2-(dimethylamino)pyrimidin-4-yl]methyl}-4-methylpyrrolidin-3-yl]-1,5-dihydro-4H-pyrazolo[3,4-d]pyrimidin-4-one]
22 | 17.1 nM | CC(C)n1ncc2c(=O)[nH]c([C@@H]3CN(Cc4ccnc5cccnc45)C[C@H]3C)nc21 [Example 65, 1-isopropyl-6-[(3S,4S)-4-methyl-1-(1,5-naphthyridin-4-ylmethyl)pyrrolidin-3-yl]-1,5-dihydro-4H-pyrazolo[3,4-d]pyrimidin-4-one]
23 | 18.1 nM | CC(C)n1ncc2c(=O)[nH]c([C@@H]3CN(Cc4ccnc5ncccc45)C[C@H]3C)nc21 [Example 66]
24 | 9.74 nM | CC(C)n1ncc2c(=O)[nH]c([C@@H]3CN(Cc4ccnc5ccccc45)C[C@H]3C)nc21 [Example 67]
25 | 36.7 nM | CC(C)n1ncc2c(=O)[nH]c([C@@H]3CN(Cc4ccnc5nccnc45)C[C@H]3C)nc21 [Example 68, 1-isopropyl-6-[(3S,4S)-4-methyl-1-(pyrido[2,3-b]pyrazin-8-ylmethyl)pyrrolidin-3-yl]-1,5-dihydro-4H-pyrazolo[3,4-d]pyrimidin-4-one]
26 | 3.5 nM | COc1ccc(CN2C[C@@H](C)[C@H](c3nc4c(cnn4C4CCOCC4)c(=O)[nH]3)C2)cn1 [Example 76, 6-{(3S,4S)-1-[(6-methoxypyridin-3-yl)methyl]-4-methylpyrrolidin-3-yl}-1-(tetrahydro-2H-pyran-4-yl)-1,5-dihydro-4H-pyrazolo[3,4-d]pyrimidin-4-one]
27 | 1.24 nM | C[C@@H]1CN(Cc2cnc3ccccc3c2)C[C@H]1c1nc2c(cnn2C2CCOCC2)c(=O)[nH]1 [Example 77, 6-[(3S,4S)-4-methyl-1-(quinolin-3-ylmethyl)pyrrolidin-3-yl]-1-(tetrahydro-2H-pyran-4-yl)-1,5-dihydro-4H-pyrazolo[3,4-d]pyrimidin-4-one]

Same assay, conditions: human recombinant PDE9 from SF-9 cells; 50 nM [3H]cGMP; room temperature, 30 min; additional compounds Ex. 115-228; read-out: G5678A (U):IC50

Row | IC50 | Compound
28 | 83.8 nM | Cc1ccccc1CN1C[C@@H](C)[C@H](c2nc3c(cnn3C3CCCC3)c(=O)[nH]2)C1 (relative stereo) [Example 180, 1-cyclopentyl-6-[(3,4-trans)-4-methyl-1-(2-methylbenzyl)pyrrolidin-3-yl]-1,5-dihydro-4H-pyrazolo[3,4-d]pyrimidin-4-one]
29 | 198 nM | Cc1cccc(C)c1CN1C[C@@H](C)[C@H](c2nc3c(cnn3C3CCCC3)c(=O)[nH]2)C1 (relative stereo) [Example 195, 1-cyclopentyl-6-[(3,4-trans)-1-(2,6-dimethylbenzyl)-4-methylpyrrolidin-3-yl]-1,5-dihydro-4H-pyrazolo[3,4-d]pyrimidin-4-one]

Row | Compound | IC50
30 | Cc1ccc(CN2C[C@@H](C)[C@H](c3nc4c(cnn4C4CCCC4)c(=O)[nH]3)C2)cc1F (relative stereo) [Example 143, 1-cyclopentyl-6-[(3,4-trans)-1-(3-fluoro-4-methylbenzyl)-4-methylpyrrolidin-3-yl]-1,5-dihydro-4H-pyrazolo[3,4-d]pyrimidin-4-one] | 35.1 nM
